This is an account of results in patent publication US20140296354A1, “SYNTHESIS OF PEPTOID-BASED SMALL MOLECULAR GELATORS FROM MULTIPLE COMPONENT REACTIONS” (OLD DOMINION UNIVERSITY RESEARCH FOUNDATION, priority 2013, published 2014).

Data set [1] can be described thus: Gelation test in solvents at room temperature. Type of data set: physicochemical. Set-up: key to Gelation test result: I, insoluble; P, precipitating; S, soluble at ~20 mg/mL; G, gel at room temperature; number is minimum gelation concentration. As to conditions: for Gelation test result / minimum gelation concentration: room temperature; for MGC in DMSO:H2O (1:2): Table 2. How it is done:
Gelation tests were performed by adding incremental amounts of compounds to a solvent or solvent system at room temperature and observing the results (i.e., gel formation, solubility of compounds, insolubility of compounds, or formation of a precipitate). […] The term “precipation” means that the compound dissolves upon heating and sonicating, however, it crashes out of solution when the heat is removed.
After the compounds were synthesized, they were screened for gelation properties. […] For the compounds with new chiral centers, they formed gels in aqueous environment preferentially.

A further data set is described as follows: Gel melting temperatures. It counts as physicochemical. As to conditions: gel in DMSO:H2O (1:2) at its minimum gelation concentration. How it is done: Melting points were measured for compounds that were gelators in the DMSO:H2O (1:2) solvent system. In general, a compound was dissolved in heated solvent in a small vial at its minimum gelation concentration and transferred into a tube (e.g., an NMR tube) while the mixture was still warm. The tube was sonicated and cooled until a stable gel formed. The tube was immersed in an oil bath and the temperature of the solid-to-liquid phase transition was monitored using a thermometer as the oil bath temperature was changed. Gel melting temperatures are presented in […]

Data set [2] in a line: Optical micrographs of gels (morphology). Type of data set: physicochemical. The conditions noted are these: for morphology of the gel: optical micrographs, FIG. 3. An excerpt:
Solvent for 1(a-d) is DMSO:H2O (1:2); solvent for 1(e-f) is EtOH:H2O (1:2).
The EtOH/H2O gel has shown more uniform fibrous structures with an average diameter of 0.5 μm and over 300 μm in length (FIG. 3e, f).

What is called melting point is the temperature, or range, at which the solid turns liquid. The compound `O=C(CN(Cc1ccccc1)C(=O)c1ccc([N+](=O)[O-])cc1)NC1CCCCC1` [Compound 18, N-benzyl-N-(2-(cyclohexylamino)-2-oxoethyl)-4-nitrobenzamide] came in with a melting point of 190 to 192 °C. For the same compound, the “gelation efficiency (in words)” value in data set [1] is “not a very efficient gelator”. For the same compound, in data set [1] (DMSO aqueous mixture), the “concentration at which gel formed” value amounted to 2 wt %. Besides, in data set [1] (DMSO:H2O (1:1)), the Gelation test result is “G” and the minimum gelation concentration was 20.0 mg/mL. Also, in data set [1] (DMSO:H2O (1:2)), the Gelation test result is recorded as “G”, the minimum gelation concentration is given as 10.0 mg/mL and the “MGC in DMSO:H2O (1:2)” value turned out to be 10.0 mg/mL. Also, the Gelation test result in data set [1] (EtOH) was “P”. Besides, in data set [1] (EtOH:H2O (1:1)), the Gelation test result is “G” and the minimum gelation concentration is on record as 20.0 mg/mL. The Gelation test result in data set [1] (EtOH:H2O (1:2)) is listed as “P”. Besides, the Gelation test result in data set [1] (H2O) is recorded as “P”. The Gelation test result in data set [1] (Hexane) is recorded as “I”. Moreover, in “Gel melting temperatures”, the “T1, temperature at which gel begins to melt” value (from here on “T1, temperature”) is 91 °C; the “T2, temperature at which gel is approximately half melted” value (“T2, temperature” below) is 95 °C; the “T3, temperature at which gel is fully melted” value (shortened to “T3, temperature”) came to 110 °C. Also, the “morphology of the gel” value in data set [2] is “rod or sheet like feature”.
As for `CCOC(=O)CNC(=O)CN(Cc1ccc(OC)cc1)C(=O)c1ccc(Br)cc1` [Compound 21, Ethyl 2-(2-(N-(4-methoxybenzyl)-4-bromobenzamido)acetamido)acetate], the melting point fell in the range of 123 to 125 °C. Also, the “gelation efficiency (in words)” value in data set [1] is reported as “most efficient gelator identified in this study”. In data set [1] (DMSO:H2O (1:1)), the Gelation test result is “G” and the minimum gelation concentration is on record as 2.5 mg/mL. Also, in data set [1] (DMSO:H2O (1:2)), the Gelation test result is reported as “G”, the minimum gelation concentration amounted to 2.0 mg/mL and the “MGC in DMSO:H2O (1:2)” value came to 2.0 mg/mL. In data set [1] (EtOH), the Gelation test result is “G” and the minimum gelation concentration is on record as 20.0 mg/mL. In data set [1] (EtOH:H2O (1:1)), the Gelation test result is on record as “G” and the minimum gelation concentration came to 5.0 mg/mL. Also, in data set [1] (EtOH:H2O (1:2)), the Gelation test result is reported as “G” and the minimum gelation concentration came out at 2.8 mg/mL. For the same compound, the Gelation test result in data set [1] (H2O) was “S (S, soluble at ~20 mg/mL)”. For the same compound, the Gelation test result in data set [1] (Hexane) is “I”. In addition, in the data set “Gel melting temperatures”, the “T1, temperature” value stood at 70 °C; the “T2, temperature” value was determined as 75 °C; the “T3, temperature” value was 81 °C. In addition, in data set [2] (EtOH/H2O gel), the “average diameter of fibrous structures” value amounted to 0.5 μm and the “length of fibrous structures” value was “over 300 μm”. Further, the “morphology of the gel” value in data set [2] is “very long and uniform fibrous assemblies”.
Regarding `CCOC(=O)CNC(=O)CN(C(=O)c1ccc(Br)cc1)C1C(OC)OC2COC(c3ccccc3)OC2C1O` (stereo not shown) [Compound 26, Ethyl-2-(2-(4-bromo-N-(8-hydroxy-6-methoxy-2-phenyl-hexahydropyrano[3,2-d][1,3]dioxin-7-yl)benzamido)acetamido)acetate], the melting point is 207 to 209 °C. In addition, in data set [1], the “gelation efficiency (in words)” value is given as “more efficient gelator”. In data set [1] (DMSO/H2O (1:2)), the “concentration at which gel formed” value is 0.66 wt %. In data set [1] (DMSO:H2O (1:1)), the Gelation test result is reported as “G” and the minimum gelation concentration stood at 10.0 mg/mL. In data set [1] (DMSO:H2O (1:2)), the Gelation test result is “G”, the minimum gelation concentration amounted to 6.6 mg/mL and the “MGC in DMSO:H2O (1:2)” value stood at 6.6 mg/mL. Besides, the Gelation test result in data set [1] (EtOH) is “I”. In data set [1] (EtOH:H2O (1:1)), the Gelation test result is on record as “G” and the minimum gelation concentration is 20.0 mg/mL. In data set [1] (EtOH:H2O (1:2)), the Gelation test result was “G” and the minimum gelation concentration came out at 10.0 mg/mL. Also, in data set [1] (H2O), the Gelation test result is on record as “P”. For the same compound, the Gelation test result in data set [1] (Hexane) is “I”. Also, in “Gel melting temperatures”, the “T1, temperature” value worked out at 110 °C; the “T2, temperature” value is 118 °C; the “T3, temperature” value was 128 °C. Also, in data set [2], the “morphology of the gel” value is recorded as “thinner fibrous assembly”.
